Measured values from patent US20110039921A1 (priority 2007, published 2011).
Where two headings read alike, the source gives them in different places.

What was measured:
[1] = test system: human lung adenocarcinoma A549-nude mice-xenograft tumor; experiment: Growth inhibition on A549-nude mice-xenograft tumor
Source text: (§1) Genera: BALB/c (nu-nu) nude mice
(§2) After one-week accommodation, animals were given subcutaneous implantation of the human lung adenocarcinoma A549 or the human ovarian cancer A2780 or the human gastric carcinoma BGC-823 cells. Animals were grouped randomly (d0) when the tumors reached 100-300 mm^3. […] Animal weights and tumor measurements were taken every […] and recorded. At the end of the study (d30 or d35), nude mice were euthanized and weighed. After the animals were sacrificed, tumor tissue was cut and weighed. Tumor volume was determined using the following equation: […]

[2] = test system: human ovarian cancer A2780-nude mice-xenograft tumor; experiment: Growth inhibition on A2780-nude mice-xenograft tumor; details: for Tv x ± SD dn: dn: 30 days after the first administration
Source text: as §1, §2

[3] = test system: human gastric carcinoma BGC-823 nude mice-xenograft tumor; experiment: Growth inhibition on BGC-823-nude mice-xenograft tumor; details: for Tv x ± SD dn: dn 30 days after the first administration
Source text: as §1, §2

[4] = test system: MCF-7/D: adriamycin-resistant subline of the human mammary adenocarcinoma cell strain MCF-7; experiment: MTT cytotoxicity assay, MCF-7/D cells; type: cell-based; details: Table 2, read-out: IC50 (mol/L) MCF-7/D
Method: (§3) Experiment 1. Cytotoxicity Screening Assay at Cell Level of Compounds of this Invention
(§4) Tumor cells at log phase were incubated on 96-well plates at a density of 1˜1.2×10^4 cells/ml, 100 μl/well. 24 h later, treatment cells were exposed to the tested agents at different concentrations. Each tested agents had 4˜5 doses, and each dose had at least 3 parallel wells. Control cells were exposed to solvents in the same volume with treat agents. Cells were cultured at 37° C. in a cell incubator with 5% CO2 and 95% air atmosphere. After 4 days of culture, the incubation medium was removed, then 200 μl 0.2% MTT (prepared by RPMI 1640) was added to each well and the plates were incubated at 37° C. for 4 hours. The supernatant was discarded and dissolved the resulting formazen product with 200 μl DMSO in each well. The absorbance at a reference wavelength of 450 nm and a test wavelength of 570 nm was read on a microplate reader after tenderly shaking. Calculated drug inhibitory rate using the following equation and IC50, taking solvent exposure tumor cells as control cells.

A2780 = experiment: MTT cytotoxicity assay, A2780 cells; type: cell-based, human; details: Table 2, read-out: IC50 (mol/L) A2780
Method: as §3, §4

Bel-7402 = experiment: MTT cytotoxicity assay, Bel-7402 cells; type: cell-based; details: Table 2, read-out: IC50 (mol/L) Bel-7402
Method: as §3, §4

BGC-803 = experiment: MTT cytotoxicity assay, BGC-803 cells; type: cell-based; details: Table 2, read-out: IC50 (mol/L) BGC-803
Method: as §3, §4

BGC-823 = experiment: MTT cytotoxicity assay, BGC-823 cells; type: cell-based, human; details: Table 2, read-out: IC50 (mol/L) BGC-823
Method: as §3, §4

Lewis lung cancer = experiment: Inhibitory activity on mice Lewis lung cancer
[5] = test system: KB/V: the vincristine-resistant substrain of KB; experiment: cells; type: cell-based, human; details: Table 1; MTT, 4 days of culture; read-out: IC50(M) KB/V
Method: as §3, §4

[6] = test system: A549/Taxol: the taxol-resistant substrain of A549; experiment: cells; type: cell-based, human
Method: as §3, §4

[7] = test system: KB: the human oral epithelium cancer cell strain; experiment: cells; type: cell-based
Method: as §3, §4

[8] = test system: A549: the human lung adenocarcinoma cell strain; experiment: cells; type: cell-based
Method: as §3, §4

HCT-8 = experiment: MTT cytotoxicity assay, HCT-8 cells; type: cell-based; details: Table 2, read-out: IC50 (mol/L) HCT-8
Method: as §3, §4

[9] = test system: human mammary adenocarcinoma cell strain MCF-7; experiment: MTT cytotoxicity assay, MCF-7 cells; type: cell-based; details: Table 2, read-out: IC50 (mol/L) MCF-7
Method: as §3, §4

CC=C(C)C(=O)NC(c1ccccc1)C(O)C(=O)OC1CC2(O)C(OC(=O)c3cccc(N=[N+]=[N-])c3)C3C4(OC(C)=O)COC4CC(OC(=O)CC)C3(C)C(=O)C(O)C(=C1C)C2(C)C (stereo not drawn) [Example 8, 2-(3-azidobenzoyl)-7-propionyl-10-deacetyl-cephalomannine]
RTV ([1]; 7.5 × 3 mg/kg): 7.2 | T/C (%) ([1]; 7.5 × 3 mg/kg): 60.7% | Body weight (g) end ([1]; 7.5 × 3 mg/kg): 21.8 g | Tv x ± SD end ([1]; 7.5 × 3 mg/kg): 3090 ± 900 | Body weight (g) initial ([1]; 7.5 × 3 mg/kg): 21.6 g | Tv x ± SD initial ([1]; 7.5 × 3 mg/kg): 431 ± 94 | RTV ([1]; 15 × 3 mg/kg): 6.7 | T/C (%) ([1]; 15 × 3 mg/kg): 56.7% | Body weight (g) end ([1]; 15 × 3 mg/kg): 25.1 g | Tv x ± SD end ([1]; 15 × 3 mg/kg): 2897 ± 950 | Body weight (g) initial ([1]; 15 × 3 mg/kg): 22.4 g | Tv x ± SD initial ([1]; 15 × 3 mg/kg): 432 ± 115 | RTV ([1]; 30 × 3 mg/kg): 4.0 | T/C (%) ([1]; 30 × 3 mg/kg): 33.56% | Body weight (g) end ([1]; 30 × 3 mg/kg): 23.2 g | Tv x ± SD end ([1]; 30 × 3 mg/kg): 1646 ± 450 | Body weight (g) initial ([1]; 30 × 3 mg/kg): 21.8 g | Tv x ± SD initial ([1]; 30 × 3 mg/kg): 415 ± 85 | inhibition of tumor growth, conclusion in words ([1]; A549 nude mice-xenograft tumor, comparison with taxol): stronger effect | RTV ([2]; 7.5 × 4 mg/kg i.p.): 7.8 | T/C (%) ([2]; 7.5 × 4 mg/kg i.p.): 80.3% | Tv x ± SD d0 ([2]; 7.5 × 4 mg/kg i.p., d0): 127.6 ± 65.9 | Tv x ± SD dn ([2]; 7.5 × 4 mg/kg i.p.): 989.3 ± 658.9 | Body weight (g) end ([2]; 7.5 × 4 mg/kg i.p.): 25.5 g | Body weight (g) initial ([2]; 7.5 × 4 mg/kg i.p.): 22.4 g | RTV ([2]; 15 × 4 mg/kg i.p.): 6.6 | T/C (%) ([2]; 15 × 4 mg/kg i.p.): 68.1% | Tv x ± SD d0 ([2]; 15 × 4 mg/kg i.p., d0): 130.2 ± 36.0 | Tv x ± SD dn ([2]; 15 × 4 mg/kg i.p.): 855.6 ± 500.3 | Body weight (g) end ([2]; 15 × 4 mg/kg i.p.): 25.2 g | Body weight (g) initial ([2]; 15 × 4 mg/kg i.p.): 22.0 g | RTV ([2]; 30 × 4 mg/kg i.p.): 3.4 | T/C (%) ([2]; 30 × 4 mg/kg i.p.): 34.9% | Tv x ± SD d0 ([2]; 30 × 4 mg/kg i.p., d0 (first administration)): 157.1 ± 56.2 | Tv x ± SD dn ([2]; 30 × 4 mg/kg i.p.): 529.6 ± 454.8 | Body weight (g) end ([2]; 30 × 4 mg/kg i.p.): 22.3 g | Body weight (g) initial ([2]; 30 × 4 mg/kg i.p.): 22.0 g | inhibition of tumor growth, conclusion in words ([2]; A2780 nude mice-xenograft tumor, comparison with taxol): stronger effect | RTV ([3]; 7.5 × 4 mg/kg i.p.): 17.45 | T/C (%) ([3]; 7.5 × 4 mg/kg i.p.): 63.84% | Tv x ± SD d0 ([3]; 7.5 × 4 mg/kg i.p.): 101.1 ± 17.4 | Tv x ± SD dn ([3]; 7.5 × 4 mg/kg i.p.): 2057.5 ± 1756.4 | Body weight (g) end ([3]; 7.5 × 4 mg/kg i.p.): 26.1 g | Body weight (g) initial ([3]; 7.5 × 4 mg/kg i.p.): 24.7 g | RTV ([3]; 15 × 4 mg/kg i.p.): 9.27 | T/C (%) ([3]; 15 × 4 mg/kg i.p.): 33.90% | Tv x ± SD d0 ([3]; 15 × 4 mg/kg i.p.): 104.4 ± 16 | Tv x ± SD dn ([3]; 15 × 4 mg/kg i.p.): 1156.6 ± 403.9 | Body weight (g) end ([3]; 15 × 4 mg/kg i.p.): 23.8 g | Body weight (g) initial ([3]; 15 × 4 mg/kg i.p.): 25.2 g | RTV ([3]; 30 × 4 mg/kg i.p.): 0.47 | T/C (%) ([3]; 30 × 4 mg/kg i.p.): 4.57% | Tv x ± SD d0 ([3]; 30 × 4 mg/kg i.p.): 99.7 ± 34.3 | Tv x ± SD dn ([3]; 30 × 4 mg/kg i.p.): 177.1 ± 199.0 | Body weight (g) end ([3]; 30 × 4 mg/kg i.p.): 23.9 g | Body weight (g) initial ([3]; 30 × 4 mg/kg i.p.): 25.0 g | inhibition of tumor growth, conclusion in words ([3]; BGC-823 nude mice-xenograft tumor, comparison with taxol): equal to taxol | IC50 [4]: 270 nM | IC50 (A2780): 3.6 nM | IC50 (Bel-7402): 8.7 nM | IC50 (BGC-803): 2.4 nM | IC50 (BGC-823): 1.3 nM | Inhibition (%) (Lewis lung cancer; 2.5 × 8 mg/kg): 27.77% | Tumor weight (g) Average (Lewis lung cancer; 2.5 × 8 mg/kg): 2.07 g | Body weight (g) end (Lewis lung cancer; 2.5 × 8 mg/kg): 22.0 g | Body weight (g) initial (Lewis lung cancer; 2.5 × 8 mg/kg): 20.0 g | Inhibition (%) (Lewis lung cancer; 5 × 8 mg/kg): 32.46% | Tumor weight (g) Average (Lewis lung cancer; 5 × 8 mg/kg): 1.96 g | Body weight (g) end (Lewis lung cancer; 5 × 8 mg/kg): 20.4 g | Body weight (g) initial (Lewis lung cancer; 5 × 8 mg/kg): 20.0 g | Inhibition (%) (Lewis lung cancer; 10 × 8 mg/kg): 76.08% | Tumor weight (g) Average (Lewis lung cancer; 10 × 8 mg/kg): 0.69 g | Body weight (g) end (Lewis lung cancer; 10 × 8 mg/kg): 16.8 g | Body weight (g) initial (Lewis lung cancer; 10 × 8 mg/kg): 19.5 g | inhibition of tumor growth, conclusion in words (Lewis lung cancer; Lewis lung cancer, comparison with taxol): stronger effect | IC50 [5]: 2.73e-07 M | IC50 ([6]; Table 2, MTT assay, read-out: IC50 (mol/L) A549/T): 1.4 nM | IC50 ([6]; read-out: IC50(M) A549/Taxol, Table 1, MTT, 4 days of culture): > 1000 nM | IC50 ([7]; Table 1, MTT, 4 days of culture, read-out: IC50(M) KB): 2.39e-09 M | IC50 ([7]; Table 2, MTT assay, read-out: IC50 (mol/L) KB): 4.9e-10 M | IC50 ([8]; Table 1, MTT, 4 days of culture, read-out: IC50(M) A549): 9.36e-09 M | IC50 ([8]; Table 2, MTT assay, read-out: IC50 (mol/L) A549): 9.4e-10 M | IC50 (HCT-8): 0.32 nM | IC50 [9]: 0.68 nM
